In paper doi:10.1101/2025.03.25.645215v1 (biorxiv, 2025):
Read-outs that look alike come from different tables or passages of the source.

How the values were obtained:
[1] = target: T1, B^0AT2/SLC6A15 (eGFP-hSLC6A15) (Homo sapiens, UniProt Q9H2J7); test: cell-based; parameters: species or system HEK293 eGFP-hSLC6A15
T1 sequence (Q9H2J7 1-730): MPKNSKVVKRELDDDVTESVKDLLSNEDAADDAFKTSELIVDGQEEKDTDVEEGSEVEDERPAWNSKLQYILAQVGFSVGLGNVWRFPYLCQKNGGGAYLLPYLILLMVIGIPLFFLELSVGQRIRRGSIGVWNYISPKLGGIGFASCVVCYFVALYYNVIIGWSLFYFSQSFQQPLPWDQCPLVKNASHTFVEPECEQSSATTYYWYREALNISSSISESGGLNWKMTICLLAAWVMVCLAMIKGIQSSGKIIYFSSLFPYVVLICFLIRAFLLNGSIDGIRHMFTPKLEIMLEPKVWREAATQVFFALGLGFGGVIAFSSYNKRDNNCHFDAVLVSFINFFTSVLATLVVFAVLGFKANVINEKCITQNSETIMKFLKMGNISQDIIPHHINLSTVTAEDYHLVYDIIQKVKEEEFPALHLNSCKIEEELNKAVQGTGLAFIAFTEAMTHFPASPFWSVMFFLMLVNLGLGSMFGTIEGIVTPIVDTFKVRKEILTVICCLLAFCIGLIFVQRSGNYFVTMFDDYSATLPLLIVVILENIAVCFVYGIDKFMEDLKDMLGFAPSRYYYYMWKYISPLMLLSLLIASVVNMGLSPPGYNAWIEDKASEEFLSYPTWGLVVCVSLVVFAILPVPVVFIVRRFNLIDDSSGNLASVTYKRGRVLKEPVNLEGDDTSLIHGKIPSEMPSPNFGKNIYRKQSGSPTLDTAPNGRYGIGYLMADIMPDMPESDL

[2] = target: T1, B^0AT2/SLC6A15 (eGFP-hSLC6A15); test: cell-based; parameters: species or system HEK293 eGFP-hSLC6A15; remark: listed apart in the source
[3] = target: T1, B^0AT2/SLC6A15 (eGFP-hSLC6A15); test: cell-based; parameters: species or system HEK293 eGFP-hSLC6A15; remark: listed apart in the source
[4] = tested on: NTT4/SLC6A17 (NTT4-B^0AT2 chimera); test: 3H-proline uptake inhibition, HEK293, 384-well; assay type: cell-based; settings: blanket statement for all 1,5-benzodiazepine analogs
GAT1 (hGAT1) = GAT1 (hGAT1) (Homo sapiens, UniProt P30531); test: 3H-GABA uptake inhibition, HEK293, 384-well; assay type: cell-based
SERT (hSERT) = SERT (hSERT) (Homo sapiens, UniProt P31645); test: 3H-5HT uptake inhibition, HEK293, 384-well; assay type: cell-based
[5] = read-out: B^0AT2 IC50, inhibitor

GAT1 (hGAT1), sequence (P30531 whole entry): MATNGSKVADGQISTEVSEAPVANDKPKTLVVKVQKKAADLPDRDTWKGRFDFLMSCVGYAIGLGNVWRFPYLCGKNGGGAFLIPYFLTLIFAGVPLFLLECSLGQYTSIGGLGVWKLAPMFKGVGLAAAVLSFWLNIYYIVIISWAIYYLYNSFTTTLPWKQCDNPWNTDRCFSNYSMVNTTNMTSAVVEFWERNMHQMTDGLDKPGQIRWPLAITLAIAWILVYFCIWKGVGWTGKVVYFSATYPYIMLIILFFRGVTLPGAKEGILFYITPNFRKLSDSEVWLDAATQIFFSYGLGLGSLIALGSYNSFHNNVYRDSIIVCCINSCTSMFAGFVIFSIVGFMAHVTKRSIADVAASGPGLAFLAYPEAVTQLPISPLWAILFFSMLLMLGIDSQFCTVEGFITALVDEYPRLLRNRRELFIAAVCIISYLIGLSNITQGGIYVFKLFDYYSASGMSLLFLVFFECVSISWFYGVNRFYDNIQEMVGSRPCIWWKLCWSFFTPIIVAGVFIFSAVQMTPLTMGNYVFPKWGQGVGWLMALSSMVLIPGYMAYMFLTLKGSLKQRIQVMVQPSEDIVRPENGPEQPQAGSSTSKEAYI
SERT (hSERT), sequence (P31645 whole entry): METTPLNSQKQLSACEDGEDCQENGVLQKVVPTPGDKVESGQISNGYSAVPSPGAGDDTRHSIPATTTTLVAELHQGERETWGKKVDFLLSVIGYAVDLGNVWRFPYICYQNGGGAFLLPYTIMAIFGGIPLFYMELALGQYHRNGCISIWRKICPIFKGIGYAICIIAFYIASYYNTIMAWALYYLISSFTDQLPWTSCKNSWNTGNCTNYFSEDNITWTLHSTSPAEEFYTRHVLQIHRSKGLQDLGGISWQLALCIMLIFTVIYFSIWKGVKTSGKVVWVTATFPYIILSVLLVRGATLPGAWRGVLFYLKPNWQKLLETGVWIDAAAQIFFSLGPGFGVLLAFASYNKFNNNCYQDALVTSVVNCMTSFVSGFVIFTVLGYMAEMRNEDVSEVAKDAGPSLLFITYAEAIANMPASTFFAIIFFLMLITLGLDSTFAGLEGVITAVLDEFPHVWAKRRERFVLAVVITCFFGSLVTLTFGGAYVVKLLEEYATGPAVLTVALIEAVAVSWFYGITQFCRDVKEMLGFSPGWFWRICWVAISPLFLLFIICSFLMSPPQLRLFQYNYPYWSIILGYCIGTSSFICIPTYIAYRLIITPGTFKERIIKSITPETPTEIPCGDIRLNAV

SMILES	IC50 [2]	IC50 [3]	also measured
CC1(C)CC(=O)C2=C(C1)Nc1ccccc1N(C(=O)c1ccccc1)C2c1cccnc1 (stereo not shown) [12c]			IC50 [1]: 1.9 ± 0.4 µM
CC1(C)CC(=O)C2=C(C1)Nc1ccccc1N(C(=O)c1ccccc1)C2c1ccccn1 (stereo not shown) [12d]			IC50 [1]: 3.9 ± 0.8 µM
CC1(C)CC(=O)C2=C(C1)Nc1ccccc1N(C(=O)c1ccccc1)C2c1ccco1 (stereo not shown) [12e]			IC50 [1]: 1.3 ± 0.1 µM
Cc1ccc(C2C3=C(CC(C)(C)CC3=O)Nc3ccccc3N2C(=O)c2ccccc2)o1 (stereo not shown) [12f]			IC50 [1]: 2.6 ± 0.2 µM
Cn1cccc1C1C2=C(CC(C)(C)CC2=O)Nc2ccccc2N1C(=O)c1ccccc1 (stereo not shown) [12g]			IC50 [1]: > 80 µM
CC1(C)CC(=O)C2=C(C1)Nc1ccccc1N(C(=O)c1ccccc1)C2c1c[nH]c2ccccc12 (stereo not shown) [12h]			IC50 [1]: > 30 µM
CC1(C)CC(=O)C2=C(C1)Nc1ccccc1N(C(=O)c1ccccc1)C2c1ccc(-c2ccc(Br)cc2)o1 (stereo not shown) [12i]			IC50 [1, 5]: > 80 µM
COc1cc(C2Nc3ccccc3NC3=C2C(=O)CCC3)ccc1O (stereo not shown) [13a]	> 80 µM		
CCOc1cc(C2C3=C(CCCC3=O)Nc3ccccc3N2C(=O)CC)ccc1O (stereo not shown) [13b]			IC50 [2, 5]: > 80 µM
CC1(C)CC(=O)C2=C(C1)Nc1ccccc1NC2c1ccccc1 (stereo not shown) [13c]	> 80 µM		
CC1(C)CC(=O)C2=C(C1)Nc1ccccc1N(Cc1ccccc1)C2c1ccccc1 (stereo not shown) [13d]	> 80 µM		
CCCCOc1ccc(C2C3=C(CC(C)(C)CC3=O)Nc3ccccc3N2C(=O)c2ccccc2F)cc1 (stereo not shown) [13e]	1.4 ± 0.1 µM		
COc1ccc(C2C3=C(CC(C)CC3=O)Nc3ccccc3N2C(=O)c2ccc(F)cc2)cc1 (stereo not shown) [13f]	9 ± 11 µM		
COc1ccc(C2C3=C(CC(C)(C)CC3=O)Nc3ccccc3N2C(=O)c2ccc(Cl)cc2)cc1OC (stereo not shown) [13g]	> 80 µM		
O=C1CCCC2=C1C(c1ccccc1)N(C(=O)c1ccc(Cl)cc1)c1ccccc1N2 (stereo not shown) [13h]	> 80 µM		
Cc1ccc(C(=O)N2c3ccccc3NC3=C(C(=O)CCC3)C2c2ccccc2)cc1 (stereo not shown) [13i]	> 80 µM		
COc1ccc(C(=O)N2c3ccccc3NC3=C(C(=O)CCC3)C2c2ccccc2)cc1 (stereo not shown) [13j]	> 80 µM		
O=C1CCCC2=C1C(c1ccccc1)N(C(=O)C1CCCCC1)c1ccccc1N2 (stereo not shown) [13k]	> 80 µM		
O=C1CCCC2=C1C(c1ccccc1)N(C(=O)c1ccco1)c1ccccc1N2 (stereo not shown) [13l]	> 55 µM		
O=C1CCCC2=C1C(c1ccccc1)N(C(=O)c1ccc3ccccc3c1)c1ccccc1N2 (stereo not shown) [13m]	> 80 µM		

Further lines, with some results ahead:

IC50 [2]	IC50 [3]	SMILES	also measured
	1.1 ± 0.1 µM	O=C1CC(c2ccccc2)CC2=C1C(c1ccccc1)N(C(=O)c1ccccc1)c1ccccc1N2 (stereo not shown) [14a]	
	1 ± 0.1 µM	COc1ccc(C2CC(=O)C3=C(C2)Nc2ccccc2N(C(=O)c2ccccc2)C3c2ccccc2)cc1 (stereo not shown) [14b]	
	1.2 ± 0.2 µM	COc1ccc(C2CC(=O)C3=C(C2)Nc2ccccc2N(C(=O)c2ccccc2)C3c2ccc(OC)cc2)cc1 (stereo not shown) [14e]	
	> 80 µM	COc1ccc(C2C3=C(CC(c4ccc(OC)c(OC)c4)CC3=O)Nc3ccccc3N2C(=O)c2ccccc2)cc1 (stereo not shown) [14f]	IC50 [4]: > 80 µM; IC50 (GAT1 (hGAT1)): > 80 µM; IC50 (SERT (hSERT)): > 80 µM
	2.1 ± 0.5 µM	COc1ccc(C2C3=C(CC(c4ccc(C)cc4)CC3=O)Nc3ccccc3N2C(=O)c2ccccc2)cc1OC (stereo not shown) [14g]	
	> 80 µM	COc1cccc(C2C3=C(CC(c4ccccc4)CC3=O)Nc3ccccc3N2C(=O)c2ccccc2)c1 (stereo not shown) [14h]	
	> 80 µM	COc1ccc(C2CC(=O)C3=C(C2)Nc2ccccc2N(C(=O)c2ccccc2)C3c2cccc(OC)c2)cc1 (stereo not shown) [14i]	
	> 80 µM	Cc1ccc(C2C3=C(CC(c4ccc(Cl)cc4)CC3=O)Nc3ccccc3N2C(=O)c2ccccc2)cc1 (stereo not shown) [14j]	
	> 80 µM	Cc1ccc(C2C3=C(CC(c4cccc(Cl)c4)CC3=O)Nc3ccccc3N2C(=O)c2ccccc2)cc1 (stereo not shown) [14k]	
	> 80 µM	Cc1ccc(C2C3=C(CC(c4ccccc4F)CC3=O)Nc3ccccc3N2C(=O)c2ccccc2)cc1 (stereo not shown) [14l]	
	0.7 ± 0.05 µM	CC1CC(=O)C2=C(C1)Nc1ccccc1N(C(=O)c1ccccc1)C2c1cc(F)cc(F)c1 (stereo not shown) [14m]	
